Key:
[1] = test system: human leukemia xenografts (HL-60); experiment: HL-60 human leukemia xenograft model: tumor volume and survival; type: in vivo, mouse
Text: Tumors were developed in first generation hybrid BDF1 (C57 B1 female×DBA/2 male) adult female mice kept at specified pathogen free (SPF) hygienic level. Suspensions of HL-60 human leukemia cells, or approximately 0.1 cm^3 volume of tumor tissue derived from HT-168 human melanoma, PC-3 human prostate adenocarcinoma, T47D human breast carcinoma, MXT mouse mammary cancer, or mouse B16 melanoma cells were implanted subcutaneously to develop the tumors. After 12-18 days when the tumor-bearing mice were first treated, the size of the tumors was in the 0.2-0.4 cm^3 range. All compounds used were dissolved in physiological (0.9%) saline (NaCl), and the agents, alone or in combinations, were applied subcutaneously or intraperitoneally in 50 μl volume. Tumor volume was determined by calipers in three dimensions; this technique is well known to one having ordinary skill in the art. Tumor volume was calculated according to the generally accepted formula: V=a^2×b×π/6, where “a” and “b” mean the shortest and longest diameter, respectively, of the measured tumor.
The HL-60 human leukemia model was developed and treated as described above. On day 12 the mice either remained untreated (Group 1) or were treated with 4.6 mg/kg CCDTHT (Group 2) or 4.6 mg/kg CCDTHT+15 mg/kg highly purified PALP (Group 3). Both CCDTHT and PALP were administered subcutaneously for three 5-day cycles with 2 resting days included between each 5-day cycle. In each group 7 mice were included.

[2] = Toxicological studies in mice; type: in vivo, mouse
Protocol: Accordingly, a well-tolerated dose for CCDTHT in mice is 450 μmole/animal (weighing about 25 g) which corresponds to a dose of 4.6 mg/kg. Therapeutically effective concentrations in humans will exert maximal inhibitory effects on the growth of non-healthy tissues without causing significant toxicity in normal healthy tissues.
Parallel toxicological studies also have been performed with 200-500 μmole/animal doses of the commercially available CCompound1. […] CCompound26, which may have an even better toxicity profile based on in vitro experiments with normal cells, was synthesized much later and has not yet been tested in animal experiments.

966 SK cells = experiment: Viability of 966 SK skin fibroblasts (MTT assay); type: cell-based, human; conditions: 50 and 100 μM, 72 hours
Protocol: To quantify cell death, around the time when significant and characteristic morphological changes took place, cells were pulse-labeled for 10 minutes with [^3H]thymidine to measure DNA activity as described elsewhere [Tomono, M. and Kiss, Z. (1995), “Ethanol enhances the stimulatory effects of insulin and insulin-like growth factor-I on DNA synthesis in NIH 3T3 fibroblasts,” Biochem. Biophys. Res. Commun. 208, 63-67]. Also, cells were collected as suspensions using trypsin, an established method in cell biology, followed by re-plating of cells in fresh tissue culture medium. If no viable cells were obtained after one week in culture, it meant that the cells at the time of re-plating were dead. Survival values obtained with untreated cells were considered 100%. For the determination of relative number of viable cells after treatments, in most cases the MTT assay was used. This calorimetric assay is based on the ability of living cells, but not dead cells, to reduce 3-(4,5-dimethyl thiazol-2-yl)-2,5-diphenyltetrazolium bromide [Carmichael, J, De Graff, W. G., Gazdar, A. F., Minna, J. D. and Mitchell, J. B. (1987), “Evaluation of tetrazolium-based semi-automated calorimetric assay: Assessment of chemosensitivity testing,” Cancer Res. 47, 936-942]. For this assay, cells were plated in 96-well plates, and the MTT assay was performed both in untreated and treated cell cultures. […]

[3] = Viability of NIH 3T3 normal fibroblasts (MTT assay); type: cell-based; conditions: mouse
Protocol: To quantify cell death, around the time when significant and characteristic morphological changes took place, cells were pulse-labeled for 10 minutes with [^3H]thymidine to measure DNA activity as described elsewhere [Tomono, M. and Kiss, Z. (1995), “Ethanol enhances the stimulatory effects of insulin and insulin-like growth factor-I on DNA synthesis in NIH 3T3 fibroblasts,” Biochem. Biophys. Res. Commun. 208, 63-67]. Also, cells were collected as suspensions using trypsin, an established method in cell biology, followed by re-plating of cells in fresh tissue culture medium. If no viable cells were obtained after one week in culture, it meant that the cells at the time of re-plating were dead. Survival values obtained with untreated cells were considered 100%. For the determination of relative number of viable cells after treatments, in most cases the MTT assay was used. This calorimetric assay is based on the ability of living cells, but not dead cells, to reduce 3-(4,5-dimethyl thiazol-2-yl)-2,5-diphenyltetrazolium bromide [Carmichael, J, De Graff, W. G., Gazdar, A. F., Minna, J. D. and Mitchell, J. B. (1987), “Evaluation of tetrazolium-based semi-automated calorimetric assay: Assessment of chemosensitivity testing,” Cancer Res. 47, 936-942]. For this assay, cells were plated in 96-well plates, and the MTT assay was performed both in untreated and treated cell cultures. The MTT assay also was performed at the start of treatments to allow assessment of proliferation rates in the control and treated cell cultures.
The NIH 3T3 (normal) mouse fibroblast, A431 human epidermoid adenocarcinoma, and MCF-7 human breast cancer cells were cultured in DMEM medium containing 10% FBS. The MEL-28 human melanoma cells were cultured in MEM medium containing 10% FBS. The HT-29 human colon adenocarcinoma cells were cultured in McCoy's 5a medium containing 10% FBS. The A549 human lung carcinoma cells were maintained in Ham's F12K medium containing 10% FBS. Cells were seeded into 96-well plates and treated at ˜70-90% confluency. Two hours before treatments the medium was changed for fresh 10% serum medium, and then the cells were incubated for 72 hours in the presence of 0-200 μM of CCompound1 (●) or CCompound3 (CCDTHT) (▴), as indicated. The MTT assay was used to determine cell viability after treatments. The values, shown in FIGS. 5A-5F and expressed as percent decrease in viability compared to the untreated control cells, are the mean±std. dev. of 8 incubations in one experiment. Similar results were obtained in another experiment.
NIH3T3, T47D, A-431, HT-29, and MEL-28 cells were cultured as indicated earlier. CaOV-3 human ovarian cancer cells were cultured in DMEM containing 10% FBS. ZR-75-1 human estrogen receptor-positive breast cancer cells were maintained in RPMI 1640 medium supplemented with 10% FBS. HTB-157 human fetal fibroblasts, MEL-24 human malignant melanoma cells, Hep G2 human hepatoblastoma cells, and CaCO-2 human colon adenocarcinoma cells were maintained in Eagles's MEM containing 10% FBS. MB-231 human estrogen receptor-negative breast cancer cells were maintained in Leibovitz's L-15 medium supplemented with 10% FBS. Cells were seeded into 96-well plates and treated at ˜70-90% confluency. Two hours prior to treatments the medium was changed for fresh 10% serum medium, and then the cells were incubated for 10 days in the absence (□) or presence of 50 μM CCDTHT ? or 100 μM CCDTHT (▪). The medium was changed and the cells were re-treated on days 3 and 6. The MTT assay was used to determine cell viability on day 10. The data, shown in FIG. 6, are the mean±std. dev. of 8 incubations in one experiment. (The experiment was repeated twice with similar results).
NIH 3T3, MEL-28, MEL-24, CaOV-3, ZR-75-1, and T47D cells were cultured as described above. The OVCAR human ovarian cancer cells were cultured in DMEM containing 10% FBS. Cells were seeded into 96-well plates and used at ˜60-80% confluency. […]

[4] = CCDTHT 4.6 mg/kg s.c. without or with PALP 15 mg/kg s.c., 5-day cycles

CC[N+](C)(CC)CCOCc1ccc2sc3ccccc3c(=O)c2c1.[I-] [CCDTHT, N,N-diethyl-N-methyl-2-[(9-oxo-9H-thioxanthen-2-yl)methoxy]-ethanaminium iodide]
Tumor volume, Day 16 [1, 4]: 1.26 ± 0.73 cm^3 | Tumor volume, Day 22 [1, 4]: 2.74 ± 0.37 cm^3 | Tumor volume, Day 26 [1, 4]: 3.72 ± 0.44 cm^3 | Tumor volume, Day 12 ([1]; CCDTHT 4.6 mg/kg s.c. without or with PALP 15 mg/kg s.c., start of treatment): 0.46 ± 0.32 cm^3 | survival of leukemic mice ([1]; CCDTHT 4.6 mg/kg without or with PALP 15 mg/kg): 34.9 ± 6.6 days | death of animals by day 30 ([2]; 900 μmole (about 9.2 mg/kg)): 40% | tissue alterations ([2]; 900 μmole (about 9.2 mg/kg)): mild parenchymal degeneration in the heart, focal hypostasis and chronic bronchopneumonia in the lung, and multifocal degeneration of hepatocytes in the liver | change in the composition of various blood constituents ([2]; single 450 μmole (about 4.6 mg/kg) or 400 μmole daily for 5 consecutive days): did not cause any significant change | pathological alterations in liver, brain, kidney, heart, spleen, intestine and lung ([2]; single 450 μmole or 400 μmole daily for 5 consecutive days): did not induce significant pathological alterations | sensitivity compared with HaCaT cells, 966 SK fibroblasts (966 SK cells): significantly less sensitive | cytotoxicity at 10 days, 100 μM [3]: ≤ 50%
